Reference: US8012944B2, “Method for treating cancer using IAP antisense oligomer and chemotherapeutic agent” (Pharmascience Inc., priority 2003, dated 2011)

Tests used:
[1] = tested on: pro-caspase-3, PARP; test: Pro-caspase-3 and PARP protein in H460 cells (western blot); type: cell-based, human; conditions: 1.2 μM
Procedure: One day prior to transfection, H460 cells were plated in 6- or 96-well tissue culture plates. Phosphorothioate antisense oligonucleotides were delivered into cells with Lipofectamine 2000 (Life Technologies) in the form of liposome-oligonucleotide complexes. Following a 4.5 or 6 h transfection, the transfection medium was replaced with RPMI medium containing 10% FBS, and the cells incubated for another 24 or 48 h.
The cells or tumor tissue samples were lysed with ice-cold lysis buffer (50 mM Tris, 150 mM NaCl, 2.5 mM EDTA, 0.1% SDS, 0.5% sodium deoxycholate, 1% NP-40, 0.02% sodium azide) containing protease inhibitors (Complete-Mini protease inhibitor tablets; Boehringer Mannheim GmBH, Mannheim, Germany). After incubation for 30 min on ice, samples were centrifuged at 10,000 rpm for 15 min, and stored at −20° C. Protein content in the lysed extracts was determined using a detergent-compatible Bio-Rad assay (Bio-Rad Labs, Hercules, Calif.). Equal amounts of protein (40 μg/lane) were separated on 12% SDS-polyacrylamide gels or 4-15% gradient SDS-polyacrylamide pre-made gels (Bio-Rad) and transferred to nitrocellulose membranes. Primary antibodies against XIAP, Bcl-2 (DAKO, Glostrup, Denmark), Bax (Sigma, St. Louis, Mo.), β-actin (Sigma), caspase-3 (BD PharMingen, San Diego, Calif.), and PARP (BD PharMingen) were used. The secondary antibody was the appropriate horseradish-conjugated anti-mouse or anti-rabbit IgG (Promega, Madison, Wis.). Proteins were detected by enhanced chemiluminescence (ECL; Amersham Pharmacia Biotech, Buckinghamshire, England) and visualized after exposure to Kodak autoradiography film. Scanning densitometry (Molecular Dynamics, Sunnyvale, Calif.) was performed to quantify band intensities by volume/area integration. The amount of XIAP, caspase-3, Bcl-2 and Bax in cells was normalized to their respective lane β-actin levels, upon stripping and reprobing.

[2] = tested on: human XIAP protein; test: XIAP protein in H460 tumor xenografts (western blot); type: in vivo, mouse xenograft
Procedure: To correlate the tumor growth inhibitory effects of G4 AS oligonucleotides with XIAP protein expression, we examined the changes in XIAP expression at the end of the in vivo treatment with 15 mg/kg of G4 AS and SC oligonucleotides. At day 21 or 24 post-tumor inoculation when tumors reached 1 cm^3 in size (FIG. 17), tumors were harvested and lysates from tumor homogenates were used for western blot analysis. XIAP and β-actin antibodies against the human protein were used, allowing for determination of human XIAP levels obtained from tumor cells specimens without contamination from XIAP derived from mouse cells. […]
The cells or tumor tissue samples were lysed with ice-cold lysis buffer (50 mM Tris, 150 mM NaCl, 2.5 mM EDTA, 0.1% SDS, 0.5% sodium deoxycholate, 1% NP-40, 0.02% sodium azide) containing protease inhibitors (Complete-Mini protease inhibitor tablets; Boehringer Mannheim GmBH, Mannheim, Germany). […] Protein content in the lysed extracts was determined using a detergent-compatible Bio-Rad assay (Bio-Rad Labs, Hercules, Calif.). […] Proteins were detected by enhanced chemiluminescence (ECL; Amersham Pharmacia Biotech, Buckinghamshire, England) and visualized after exposure to Kodak autoradiography film. Scanning densitometry (Molecular Dynamics, Sunnyvale, Calif.) was performed to quantify band intensities by volume/area integration. […]

“GCTGAGTCTCCATATTGCC [G4 AS] (chemistry not given here)” was tested. Which “reduction of pro-caspase-3 protein levels compared to untreated control” value [1] did it give?
Its value is 60%.

And the “down-regulation of XIAP protein in tumors vs control tumors” value ([2]; 15 mg/kg, day 21 or 24, P<0.005)?
Its value is “approximately 85%”.

What about the “down-regulation of XIAP protein in tumor xenografts” value ([2]; systemic administration) of the same sequence?
The value was 85%.
